Results on two compounds are retold here after patent publication US7084141B2, “Inhibitors of macrophase migration inhibitory factor and methods for identifying the same” (Avanir Pharmaceuticals, priority 2001, dated 2006).

The target of this assay is T1, MIF produced by THP-1 cells (Homo sapiens, UniProt P14174).
T1 construct: a test cell may express the MIF naturally (e.g., THP-1 cells); endogenous in cells; host or cells: THP-1 cells stimulated with LPS
T1 sequence (P14174 2-115 limits assumed): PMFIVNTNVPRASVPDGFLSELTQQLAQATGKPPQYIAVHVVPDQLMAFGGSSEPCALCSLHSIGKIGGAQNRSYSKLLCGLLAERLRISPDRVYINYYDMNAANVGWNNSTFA
Nature of the assay: ELISA of immunoreactive MIF from LPS stimulated THP-1 cells treated with compound. The conditions noted are these: LPS stimulated THP-1 cells, incubated overnight; read-out: ED50, inhibition of the ability of the antibody to recognize MIF (ELISA). The format is cell-based. The method, then: Alternatively, ELISA may be preferred to detect and quantify the amount of MIF in cell supernatants. ELISA is preferred for detection in high throughput screening. Briefly, 96-well plates are coated with an anti-MIF antibody or anti-tag antibody, washed, and blocked with 2% BSA. Cell supernatant is then added to the wells. Following incubation and washing, a second antibody (e.g., to MIF) is added. The second antibody may be coupled to a label or detecting reagent, such as an enzyme or to biotin. Following further incubation, a developing reagent is added and the amount of MIF determined using an ELISA plate reader. The developing reagent is a substrate for the enzyme coupled to the second antibody (typically an anti-isotype antibody) or for the enzyme coupled to streptavidin. Suitable enzymes are well known in the art and include horseradish peroxidase, which acts upon a substrate (e.g., ABTS) resulting in a colorimetric reaction. It is recognized that rather than using a second antibody coupled to an enzyme, the anti-MIF antibody may be directly coupled to the horseradish peroxidase, or other equivalent detection reagent. If desired, cell supernatants may be concentrated to raise the detection level. Further, detection methods, such as ELISA and the like may be employed to monitor intracellular as well as extracellular levels of MIF. When intracellular levels are desired, a cell lysate is preferred. When extracellular levels are desired, media can be screened.
In another experiment (FIG. 2), varying concentrations of five different inhibitor analogs were added to LPS stimulated THP-1 cells and allowed to incubate overnight. The following day the amount of immunoreactive MIF detected was evaluated by ELISA. Compound 7e inhibited the ability of the antibody to recognize MIF in a dose dependent fashion with an ED50 of 2 μM, similar to the response obtained with analogs compound 7b and compound 7d.
In a further experiment (FIG. 3), the ability of compound 7e to decrease the immunoreactivity of MIF produced by THP-1 cells was determined. THP-1 cells were treated with 10 μg/ml of LPS and 10 μM of compound 7e was added at various times post-LPS stimulation and immunoreactivity monitored with an anti-MIF monoclonal. […] Thus, this experiment measures the activity of compounds or buffer alone controls on MIF detection when the compounds are initially added at various times to cell cultures and then the corresponding conditioned media samples are processed in a time dependent fashion thereafter.
(ELISA stands for enzyme-linked immunosorbent assay.)

SMILES strings stand for the structures.

Regarding `CCOC(=O)c1c(N2CCN(C(=O)c3ccccc3)CC2)c2ccccc2n(C)c1=O` [compound 7d], the EC50 is ~2 µM.

Regarding `Cn1c(=O)c([N+](=O)[O-])c(N2CCN(C(=O)c3ccccc3)CC2)c2ccccc21` [compound 7b], the EC50 is ~2 µM.
